From patent US20220380371A1, “MLL1 INHIBITORS AND ANTI-CANCER AGENTS” (NOVARTIS AG, priority 2019, published 2022)

Experiments:
MV4-11 cells = assay: MV4-11 6-Day Cell Growth CTG (CellTiter-Glo) Assay; type: cell-based; details: MV4-11 cell growth CellTiter-Glo, 6 days
Procedure, shortened: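 MV4-11 AML cells (RPMI 1640, 10% FBS) seeded at 300 cells/well and exposed for 6 days at 37 °C to a 12-point, 1:3 compound series starting at 50 μM final. Viable cells read by CellTiter-Glo luminescence; percent inhibition versus DMSO-only wells fitted to dose-response curves for IC50.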

[1] = molecular target: wild type MLL1 four-member complex (MLL1-4C) (Homo sapiens, UniProt Q03164); assay: MLL1 LC-MS Assay; type: biochemical; details: read-out: LCMS
Procedure, shortened: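 Compound pre-incubated 20 min with MLL1-4C and SAM, then H3[1-21]-biotin (H3K4me0) substrate added; final 30 nM enzyme, 2.5 μM SAM, 10 μM peptide in Tris pH 8.0 with MgCl2, DTT, Tween 20, BSA. After 120 min at rt, TFA-quenched SAH quantified by LC-MS/MS with d4-SAH; IC50 from dose-response fit.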

[2] = molecular target: wild type MLL1 five-member complex (MLL1-5C) (Homo sapiens, UniProt Q03164); assay: MLL1 Flashplate Assay; type: biochemical; details: read-out: MLL1 flash plate
Procedure: MLL1 Flashplate Assay To assess the compound potency in MLL1 Flashplate assay, compounds were serially diluted 3-fold in DMSO to obtain a total of twelve concentrations. Then the test compounds at each concentration (250 nL of each) were transferred by Mosquito into Corning #3675 384-well plate. Solutions (15 μL) of 4.2 nM wild type MLL1 five-member complex (MLL1-5C) in the assay buffer (20 mM Tris-HCl, pH 8.0, 0.01% Tween 20, 1 mM DTT, 0.01% BSA) were added to the wells. A 10 μL solution of 2.5 μM of the peptide substrate H3K4me0 (histone H3[1-21]-Biotin) and 1.25 μM ^3H-SAM in the reaction buffer was then added to initiate each reaction. The final components in the reaction solution include 2.5 nM MLL1-5C, 0.5 μM ^3H-SAM, and 1 μM H3K4me0 with varying concentration of the compounds. A positive control consisted of 2.5 nM MLL1-5C, 0.5 μM ^3H-SAM, and 1 μM substrate in the absence of the test compound, and a negative control consisted of 0.5 μM ^3H-SAM, and 1 μM substrate only. Each reaction was incubated at rt for 90 min, then stopped by addition of 5 μL per of quench solution (0.5 mM SAM in assay buffer). 25 μL of each reaction solution was transferred to FlashPlate streptavidin 384-well microplate (PerkinElmer). After at least 1 h incubation at rt, the wells were washed three times with 0.1% Tween-20 in dH2O using the BioTek plate washer. The plates were then read in MicroBeta (PerkinElmer). The radioactive readouts were then normalized based on the values coming from the positive and negative controls to give percent enzyme activities. The data were then fit to a dose response equation using the program Helios to get the IC50 values of the test compounds.

H3K4me3 in MV4-11 cells = assay: MV4-11 H3K4me3 Cellular ELISA Assay; type: cell-based
Procedure, shortened: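 MV4-11 cells were treated for 48 h with 12-point 1:3 compound dilutions (from 10 mM stock), then histones were acid-extracted with 0.5M HCl and neutralized. H3K4me3 and total H3 were measured by HRP chemiluminescent ELISA, and inhibition versus DMSO after H3 normalization was curve-fitted for IC50.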

| SMILES | IC50 (MV4-11 cells) | IC50 [1] | IC50 [2] | IC50 (H3K4me3 in MV4-11 cells; 48 hours) | IC50 (MV4-11 cells; Homo sapiens, MV4-11, 144 h) | IC50 (H3K4me3 in MV4-11 cells; Homo sapiens, MV4-11, 48 h) |
| --- | --- | --- | --- | --- | --- | --- |
| Nc1ncnc2c1ncn2Cc1c(Br)cc(Cl)cc1N1CC[C@](N)(C(=O)NC2CC2)C1 [Example 1, (R)-3-amino-1-(2-((6-amino-9H-purin-9-yl)methyl)-3-bromo-5-chlorophenyl)-N-cyclopropylpyrrolidine-3-carboxamide] | – | < 50 nM | < 60 nM | – | 2000 to 3000 nM | < 1900 nM |
| N#Cc1c(F)ccc(N2CC[C@](N)(C(=O)NC3CC3)C2)c1Cn1cnc2c(N)ncnc21 [Example 4] | – | > 100 nM | > 100 nM | – | > 3000 nM | 1900 to 3000 nM |
| Nc1ncnc2c1ncn2Cc1c(N2CC[C@](N)(C(=O)NC3CC3)C2)ccc2c1OC(F)(F)O2 [Example 15] | – | < 50 nM | < 60 nM | – | < 2000 nM | < 1900 nM |
| C=CC(=O)N1CCN(C(=O)[C@@]2(N)CCN(c3ccc(F)c(CC)c3Cn3cnc4c(N)ncnc43)C2)CC1 [Example 17] | – | < 50 nM | < 60 nM | – | < 2000 nM | < 1900 nM |
| Nc1ncnc2c1ncn2Cc1c(Br)cc(Cl)cc1N1CC[C@](N)(c2nc[nH]n2)C1 [Example 18, (R)-9-(2-(3-amino-3-(1H-1,2,4-triazol-3-yl)pyrrolidin-1-yl)-6-bromo-4-chlorobenzyl)-9H-purin-6-amine] | – | < 50 nM | < 60 nM | – | < 2000 nM | < 1900 nM |
| Nc1ncnc2c1ncn2Cc1c(Br)cc(Cl)cc1N1CC[C@](N)(CO)C1 [Example 19] | – | 50 to 100 nM | < 60 nM | – | 2000 to 3000 nM | < 1900 nM |

The remaining lines, values ahead:

| IC50 (MV4-11 cells) | IC50 [1] | IC50 [2] | IC50 (H3K4me3 in MV4-11 cells; 48 hours) | IC50 (MV4-11 cells; Homo sapiens, MV4-11, 144 h) | IC50 (H3K4me3 in MV4-11 cells; Homo sapiens, MV4-11, 48 h) | SMILES |
| --- | --- | --- | --- | --- | --- | --- |
| < 2000 nM | > 100 nM | > 100 nM | > 3000 nM | – | – | Nc1ncnc2c1ncn2Cc1c(Br)cc(Cl)cc1N1CC[C@](N)(CO)C1 (stereo in doubt) [Example 107] |
| – | < 50 nM | < 60 nM | – | < 2000 nM | < 1900 nM | CCc1cc(Cl)cc(N2CC[C@](N)(C(=O)NC3CC3)C2)c1Cn1cnc2c(N)ncnc21 [Example 2, (R)-3-amino-1-(2-((6-amino-9H-purin-9-yl)methyl)-5-chloro-3-ethylphenyl)-N-cyclopropylpyrrolidine-3-carboxamide] |
| – | > 100 nM | > 100 nM | – | > 3000 nM | > 3000 nM | Nc1ncnc2c1ncn2Cc1c(-c2ccc3c(c2)CCO3)cc(Cl)cc1N1CC[C@](N)(C(=O)NC2CC2)C1 [Example 3] |
| – | > 100 nM | > 100 nM | – | 2000 to 3000 nM | < 1900 nM | Nc1ncnc2c1ncn2Cc1cc(F)ccc1N1CC[C@](N)(C(=O)NC2CC2)C1 [Example 14] |
| – | > 100 nM | > 100 nM | – | < 2000 nM | < 1900 nM | NC(=O)[C@@]1(N)CCN(c2cc(Cl)cc(-c3cccc(C4CCCCC4)c3)c2Cn2cnc3c(N)ncnc32)C1 [Example 16] |
| – | < 50 nM | < 60 nM | – | < 2000 nM | < 1900 nM | Nc1ncnc2c1ncn2Cc1c(Br)c(F)c2c(c1N1CC[C@](N)(C(=O)NC3CC3)C1)OCC2 [Example 20] |
| – | 50 to 100 nM | 60 to 100 nM | – | < 2000 nM | < 1900 nM | Nc1ncnc2c1ncn2Cc1c(N2CCC(N)(c3ccccn3)C2)ccc(F)c1C(F)(F)F (centres unmarked) [Example 22] |
| – | < 50 nM | < 60 nM | – | < 2000 nM | < 1900 nM | Nc1ncnc2c1ncn2Cc1c(N2CC[C@](N)(c3ccccn3)C2)ccc(F)c1C(F)(F)F [Example 23] |
| – | > 100 nM | > 100 nM | – | – | > 3000 nM | Nc1ncnc2c1ncn2Cc1c(N2CC[C@](N)(CCc3ccccn3)C2)ccc(F)c1C(F)(F)F [Example 28] |
